This is an account of results in patent publication US20200345689A1, “METHODS AND CO[…] RRx-001 FOR RADIOPROTECTION” (EpicentRx, Inc., priority 2018, published 2020).

The structures appear in SMILES notation.

One assay relates to bone marrow. Kind of assay: Histopathology of sternal bone marrow (cellularity grade, megakaryocytes) after sublethal TBI or sham irradiation. It counts as in vivo, mice. As to the method: To determine the pathophysiological effects of RRx-001 on hematopoietic protection in mice, CD2F1 male mice were treated with 10 mg/kg RRx-001 or the vehicle control 24 hours prior to a sublethal dose of TBI (7 Gy at 0.6 Gy/min using High-level Cobalt-60) or sham irradiation (day 0) according to the table below.
CD2F1 male mice (n=3/group) were divided into 4 experimental groups: 1) irradiation+vehicle, 2) irradiation+RRx-001, 3) sham-irradiation+vehicle and 4) sham-irradiation+RRx-001. Either 10 mg/kg RRx-001 or the vehicle control were IP injected 24 hours prior to either irradiation or sham-irradiation (day 0). On days 2, 7, 14, 21, and 28 post-irradiation (day 0) mice were humanely euthanized. Blood, bone marrow, and sternebrae were then collected. This experiment was performed in duplicate for a total of n=6 mice/group/time point.
Sternebrae from euthanized mice (n=6/group/time point) were collected on days 2, 7, 14, 21 and 28 post-irradiation. Sternebrae were fixed in 10% zinc-buffered formalin for at least 24 hours and up to 7 days. Fixed sternebrae were decalcified for 3 hr in 12-18% sodium EDTA (pH 7.4-7.5) and specimens dehydrated using graded ethanol concentrations and embedded in paraffin. Longitudinal 4μm sections were stained with regular hematoxylin and eosin. Two board-certified pathologist conducted histopathological evaluation of the samples. One of the pathologist scored all the samples blindly. Bone marrow was evaluated in situ within sternebrae and graded (Grade 1: <10%; Grade 2: 11-30%; Grade 3: 31-60%; Grade 4: 61-89%; Grade 5: >90%) for total cellularity. Megakaryocytes were also quantified based on the average per 10 high power fields (HPF) at 400× magnification using a BX43 or BX53 microscope (Olympus, Minneapolis, Minn.). Images were captured with an Olympus DP22 camera and imported into Olympus Cellsens Standard software for review.
Blood parameters were compared between treatment groups using an analysis of variance (ANOVA). The Wilcoxon test was also used for sensitivity and to potentially address data departures from normality. A longitudinal mixed model repeated measures was also implemented to provide a more complete data analysis of the sham-irradiated treatment groups' difference in overall time profile mean based on the blood parameters. Bone marrow data (megakaryocytes and grade) statistical analysis was carried out using a parametric test consisting of a general linear model analysis of variance (ANOVA with factors consisting of treatment group and pathologist) and the Kruskal-Wallis nonparametric test. The statistical data analysis was carried out using R software (Version 3.4.3, 2016) and the graphs made using GraphPad Prism version 7.03 (GraphPad Software, La Jolla, Calif.).
To determine the effect of RRx-001 on bone marrow, a histopathological analysis of bone marrow sternebrae was performed and the cellularity, as reported by grade (grade 1: <10%; grade 2: 11-30%; grade 3: 31-60%; grade 4: 61-89%; grade 5: >90% cellularity), and megakaryocyte numbers (averaged per 10 high-powered fields; HPF) were ascertained by two pathologists, one of which scored all the samples blindly (TAS, WEC).

Another assay concerns HO-1. Briefly: Western blot of HO-1 in THP-1 monocytes and macrophages. It counts as cell-based, human. To be noted: THP-1 macrophages, 3 mM RRx-001 for 16 hours. As to the method:
Expression of ARE proteins was assayed in hMSC, macrophages, and monocytes following in vitro irradiation of the cells, which were pretreated with RRx-001 or vehicle. Protein expression was assayed by Western blotting and protein quantification.
hMSC were treated for 16 hours with […] RRx-001 or the vehicle control (0.05% DMSO), irradiated at 10 Gy or sham-irradiated and the protein collected 8 or 24 hours post-sham or irradiation. Human monocytic leukemic THP-1 and U937 cells were differentiated into macrophages with 50 nM Phorbol 12-myristate 13-acetate (PMA) for 24 hours before treatment. Differentiated and non-differentiated cells were treated with […] RRx-001 or 0.05% DMSO (vehicle control) for 16 hours prior to radiation. The cells were irradiated at 5 Gy or sham-irradiated and collected 4-8 hours later for both analysis. For each experiment, duplicates of each sample were run.
(In western blotting, separated proteins are transferred to a membrane and probed.)

For `O=C(CBr)N1CC([N+](=O)[O-])([N+](=O)[O-])C1` [RRx-001, 2-bromo-1-(3,3-dinitroazetidin-1-yl)ethan-1-one], the “bone marrow cellularity compared to the vehicle control” value in the assay with bone marrow (7 Gy TBI, 10 mg/kg IP 24 hours prior, day 7) is on record as “slight increase in cellularity”. Besides, the “hematopoietic recovery as determined by the grade of bone marrow cellularity compared with control” value in the assay with bone marrow (7 Gy TBI, 10 mg/kg IP 24 hours prior, day 14) is “significantly accelerated hematopoietic recovery”. For the same compound, the number of megakaryocytes result in the assay with bone marrow (7 Gy TBI, 10 mg/kg IP, between days 7-28) was “steady increase”; in the assay on bone marrow (7 Gy TBI, 10 mg/kg IP, day 2), “reduced”; in the assay with bone marrow (7 Gy TBI, 10 mg/kg IP, day 7), “severely depleted”; in the assay on bone marrow (sham-irradiated, 10 mg/kg IP, day 14, vs vehicle control), “significantly higher than the vehicle control”. For the same compound, the “bone marrow cellularity grade” value with bone marrow (after irradiation (7 Gy TBI), 10 mg/kg IP 24 hours prior) is reported as 1 (grade 1: <10%); with bone marrow (sham-irradiated, 10 mg/kg IP, duration of the study (days 2-28)), 5 (grade 5: >90% cellularity). The “overall cellularity of the bone marrow” value in the assay on bone marrow (sham-irradiated, 10 mg/kg IP, duration of the study) is at least 90%. The HO-1 expression entry in the assay with HO-1 is recorded as “no significant increase in HO-1”.
